Results on 18 compounds are retold here after patent US20230304018A1, “COMPOSITIONS AND METHODS FOR ENHANCING WEIGHT LOSS” (The Children's Hospital of Philadelphia, priority 2017, published 2023).

In assay [1] the target is JAK2 (Homo sapiens, UniProt O60674). As to conditions: cited from earlier work.
The target in assay [2] is T1, JAK3 (Homo sapiens, UniProt P52333).
T1 sequence (P52333 1-1124): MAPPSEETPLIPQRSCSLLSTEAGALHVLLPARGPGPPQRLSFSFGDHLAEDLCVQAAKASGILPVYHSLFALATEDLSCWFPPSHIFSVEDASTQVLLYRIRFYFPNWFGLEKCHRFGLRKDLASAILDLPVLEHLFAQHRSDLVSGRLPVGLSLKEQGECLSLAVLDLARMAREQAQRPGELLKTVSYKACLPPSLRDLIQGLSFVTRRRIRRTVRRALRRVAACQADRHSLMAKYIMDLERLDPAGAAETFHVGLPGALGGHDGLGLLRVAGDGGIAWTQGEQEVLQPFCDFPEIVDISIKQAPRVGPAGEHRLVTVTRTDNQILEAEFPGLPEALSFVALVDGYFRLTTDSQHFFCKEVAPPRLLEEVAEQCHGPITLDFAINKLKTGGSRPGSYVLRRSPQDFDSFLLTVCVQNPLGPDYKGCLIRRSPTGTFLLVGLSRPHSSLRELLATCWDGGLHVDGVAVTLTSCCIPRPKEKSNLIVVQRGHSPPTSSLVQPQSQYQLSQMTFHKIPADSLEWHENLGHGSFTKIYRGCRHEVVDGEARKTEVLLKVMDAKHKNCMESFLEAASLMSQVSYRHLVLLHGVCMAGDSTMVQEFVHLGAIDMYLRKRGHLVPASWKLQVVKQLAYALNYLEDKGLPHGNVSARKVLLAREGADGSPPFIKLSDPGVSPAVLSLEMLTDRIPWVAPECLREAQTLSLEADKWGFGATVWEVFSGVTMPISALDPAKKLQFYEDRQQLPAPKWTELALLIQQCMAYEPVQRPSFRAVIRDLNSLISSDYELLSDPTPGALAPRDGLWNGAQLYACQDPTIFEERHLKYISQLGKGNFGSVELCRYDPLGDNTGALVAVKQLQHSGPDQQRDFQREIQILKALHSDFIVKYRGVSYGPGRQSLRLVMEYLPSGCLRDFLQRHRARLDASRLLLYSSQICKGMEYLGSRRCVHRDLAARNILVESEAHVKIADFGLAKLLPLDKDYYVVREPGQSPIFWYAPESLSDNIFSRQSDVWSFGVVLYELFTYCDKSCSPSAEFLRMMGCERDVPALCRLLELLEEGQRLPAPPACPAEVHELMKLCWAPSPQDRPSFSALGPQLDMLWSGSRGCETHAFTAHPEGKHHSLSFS
As to conditions: cited from earlier work.

The target in assay [3] is JAK1 (Homo sapiens, UniProt P23458). As to conditions: cited from earlier work.
The target of assay [4] is TYK2 (Homo sapiens, UniProt P29597). As to conditions: cited from earlier work.
The subject of assay [5] is 19 other tested kinases. As to conditions: cited from earlier work.
The target in assay [6] is mTOR (Homo sapiens, UniProt P42345). As to conditions: cited from earlier work.
Assay [7] has as its system PKC (Rat brain). As to conditions: cited from earlier work.
Assay [8] has as its system PI3K isoforms. As to conditions: cited from earlier work.
Assay [9] concerns panel of 38 non-JAK kinases. As to conditions: cited from earlier work.
The subject of assay [10] is Vps34, AKT, PDK1, p70S6K, MEK, ERK, p38, or JNK. As to conditions: cited from earlier work.
The target in assay [11] is T2, mTOR (Homo sapiens, UniProt P42345+P62942).
T2 construct: endogenous in cells; host or cells: HT-1080 cell line
As to conditions: cited from earlier work.

The target of assay [12] is T3, Flt3 (Homo sapiens, UniProt P36888).
T3 sequence (P36888 27-993): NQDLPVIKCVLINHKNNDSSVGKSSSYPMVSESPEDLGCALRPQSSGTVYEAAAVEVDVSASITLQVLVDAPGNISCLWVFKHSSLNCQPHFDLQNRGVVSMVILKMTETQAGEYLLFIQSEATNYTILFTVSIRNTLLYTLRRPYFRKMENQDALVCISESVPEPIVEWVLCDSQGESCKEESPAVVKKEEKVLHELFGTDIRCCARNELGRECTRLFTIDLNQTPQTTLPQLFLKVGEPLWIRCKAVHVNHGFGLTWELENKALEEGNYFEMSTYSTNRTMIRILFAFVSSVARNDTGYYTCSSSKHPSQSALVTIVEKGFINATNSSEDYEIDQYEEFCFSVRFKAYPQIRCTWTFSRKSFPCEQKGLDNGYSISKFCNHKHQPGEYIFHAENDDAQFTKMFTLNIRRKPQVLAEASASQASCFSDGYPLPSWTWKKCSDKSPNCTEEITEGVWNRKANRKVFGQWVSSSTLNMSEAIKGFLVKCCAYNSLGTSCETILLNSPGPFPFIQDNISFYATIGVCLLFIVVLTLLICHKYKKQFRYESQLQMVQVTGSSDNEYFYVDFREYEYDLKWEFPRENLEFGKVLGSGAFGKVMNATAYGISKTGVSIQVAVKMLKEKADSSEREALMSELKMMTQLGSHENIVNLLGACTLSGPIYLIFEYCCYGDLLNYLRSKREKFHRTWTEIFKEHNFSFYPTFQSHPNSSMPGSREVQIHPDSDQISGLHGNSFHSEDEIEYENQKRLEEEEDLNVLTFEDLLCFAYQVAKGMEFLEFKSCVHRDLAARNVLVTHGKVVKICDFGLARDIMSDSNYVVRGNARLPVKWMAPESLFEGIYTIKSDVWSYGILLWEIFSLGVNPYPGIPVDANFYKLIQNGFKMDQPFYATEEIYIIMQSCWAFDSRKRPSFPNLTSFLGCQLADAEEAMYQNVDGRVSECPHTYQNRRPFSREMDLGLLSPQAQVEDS
As to conditions: cell-free assays; cited from earlier work.

The target of assay [13] is RET (Homo sapiens, UniProt P07949). As to conditions: cell-free assays; cited from earlier work.
The subject of assay [14] is UBC-Cre-Clec16a^loxP KO mice. The assay can be described thus: Tofacitinib treatment of Clec16a KO mice: fat, weight, survival. Type of assay: in vivo.
For assay [15], the system named is HSL, STATs, AMPK, mTOR, P62, LC3I/II and SOCS-1 expression. The assay can be described thus: Immunoblot analysis on gWAT from control, KO and Tofacitinib treated mice. The class given is in vivo. From the text: To examine the signaling mechanism underlying the rescue, we performed immunoblot analysis on gWAT isolated from control, KO and Tofacitinib treated mice. We evaluated HSL, STATs, AMPK, mTOR, P62, LC3I/II and SOCS-1 expression (FIG. 10C). […]. […]. Over-activation of mTOR indicates inhibition of autophagy/lipophagy as evident by significant accumulation of P62 in CLEC16A KO mice. […].
A general note: Immunoblotting shows a protein as a band on a membrane.

The test system of assay [16] is cytokines and chemokine from plasma of Clec16a KO mice. The assay can be described thus: Plasma cytokines and chemokines, Mouse Cytokine Array panel. Type of assay: in vivo. From the text: FIG. 11. […]. The representative graph is quantification of cytokines and chemokine from plasma of Control (Vehicle), KO and KO+Tofacitinib inhibitor treated mice using the Mouse Cytokine Array panel.
To gain insight in the inflammatory mechanism involved in the development, progression and pathogenesis of various autoimmune diseases, we profiled plasma from control, KO and […] KO mice for cytokines and chemokine using Mouse Cytokine Array panel.

Assay [17] concerns majority of kinases. As to conditions: tested at 1 μM; cited from earlier work.
Assay [18] relates to STAT3. As to conditions: HEL cells; cited from earlier work.
Where [19] appears, read: gWAT immunoblot, CLEC16A KO mice.

Structures can show the parent of a compound that is named as a salt.

Chain of JAK2 (O60674 whole entry, species assumed): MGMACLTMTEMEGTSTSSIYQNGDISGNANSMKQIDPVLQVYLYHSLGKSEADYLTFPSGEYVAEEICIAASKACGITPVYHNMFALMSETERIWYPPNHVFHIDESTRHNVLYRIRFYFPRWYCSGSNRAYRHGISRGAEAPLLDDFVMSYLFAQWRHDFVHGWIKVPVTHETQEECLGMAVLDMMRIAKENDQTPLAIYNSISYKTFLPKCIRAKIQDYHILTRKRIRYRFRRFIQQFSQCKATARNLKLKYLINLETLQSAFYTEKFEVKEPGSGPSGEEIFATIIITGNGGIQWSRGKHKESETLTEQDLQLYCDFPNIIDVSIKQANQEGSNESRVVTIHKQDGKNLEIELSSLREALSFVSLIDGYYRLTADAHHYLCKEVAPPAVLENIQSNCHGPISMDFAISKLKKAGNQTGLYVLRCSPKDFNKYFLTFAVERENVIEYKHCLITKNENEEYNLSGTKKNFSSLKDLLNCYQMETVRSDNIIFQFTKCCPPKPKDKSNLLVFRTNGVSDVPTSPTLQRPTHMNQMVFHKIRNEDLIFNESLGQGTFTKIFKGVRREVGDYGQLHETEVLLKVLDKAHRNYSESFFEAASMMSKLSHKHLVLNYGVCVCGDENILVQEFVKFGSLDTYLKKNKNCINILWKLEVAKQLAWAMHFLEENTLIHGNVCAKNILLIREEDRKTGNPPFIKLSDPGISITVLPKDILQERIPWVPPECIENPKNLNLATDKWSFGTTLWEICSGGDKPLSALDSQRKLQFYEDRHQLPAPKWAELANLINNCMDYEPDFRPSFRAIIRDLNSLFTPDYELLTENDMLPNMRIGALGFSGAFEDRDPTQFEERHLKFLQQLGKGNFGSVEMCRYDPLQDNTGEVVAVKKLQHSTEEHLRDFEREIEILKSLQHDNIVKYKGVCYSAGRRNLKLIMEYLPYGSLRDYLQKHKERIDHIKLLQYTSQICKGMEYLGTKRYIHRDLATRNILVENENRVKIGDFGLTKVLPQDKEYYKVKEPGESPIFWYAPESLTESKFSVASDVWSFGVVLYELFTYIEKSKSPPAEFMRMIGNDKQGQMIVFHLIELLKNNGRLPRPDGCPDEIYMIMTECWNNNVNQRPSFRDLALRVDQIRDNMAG
Chain of TYK2 (P29597 whole entry): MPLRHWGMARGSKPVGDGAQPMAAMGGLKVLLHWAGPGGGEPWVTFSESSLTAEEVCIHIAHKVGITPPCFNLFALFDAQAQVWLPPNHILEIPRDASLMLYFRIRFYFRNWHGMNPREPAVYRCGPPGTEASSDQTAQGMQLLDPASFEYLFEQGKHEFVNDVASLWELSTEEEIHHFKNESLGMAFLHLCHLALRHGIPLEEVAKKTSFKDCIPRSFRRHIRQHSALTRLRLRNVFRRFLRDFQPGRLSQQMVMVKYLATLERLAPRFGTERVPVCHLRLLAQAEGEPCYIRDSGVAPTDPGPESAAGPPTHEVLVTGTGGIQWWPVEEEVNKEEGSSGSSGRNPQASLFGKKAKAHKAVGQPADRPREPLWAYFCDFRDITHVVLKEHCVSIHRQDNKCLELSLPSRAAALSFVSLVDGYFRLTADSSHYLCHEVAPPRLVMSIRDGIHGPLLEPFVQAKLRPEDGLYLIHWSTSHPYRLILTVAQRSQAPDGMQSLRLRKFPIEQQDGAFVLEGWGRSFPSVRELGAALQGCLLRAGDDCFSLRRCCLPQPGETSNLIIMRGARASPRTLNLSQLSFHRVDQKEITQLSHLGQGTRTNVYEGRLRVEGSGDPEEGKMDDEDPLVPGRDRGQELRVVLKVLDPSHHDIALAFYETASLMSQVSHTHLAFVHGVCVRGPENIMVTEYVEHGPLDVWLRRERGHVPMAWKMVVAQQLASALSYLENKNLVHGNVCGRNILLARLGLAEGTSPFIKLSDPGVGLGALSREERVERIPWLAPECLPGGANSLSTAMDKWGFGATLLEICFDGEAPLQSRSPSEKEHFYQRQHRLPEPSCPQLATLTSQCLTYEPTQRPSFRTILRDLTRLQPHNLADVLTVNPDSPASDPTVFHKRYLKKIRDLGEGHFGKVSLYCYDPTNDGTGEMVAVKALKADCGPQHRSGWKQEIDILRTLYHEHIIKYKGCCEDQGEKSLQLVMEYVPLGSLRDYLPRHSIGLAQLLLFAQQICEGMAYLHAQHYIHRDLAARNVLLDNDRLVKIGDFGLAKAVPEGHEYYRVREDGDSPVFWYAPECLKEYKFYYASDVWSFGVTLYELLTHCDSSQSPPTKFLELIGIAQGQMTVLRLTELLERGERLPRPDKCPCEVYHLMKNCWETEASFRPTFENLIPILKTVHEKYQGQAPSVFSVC
Chain of JAK1 (P23458 whole entry, species assumed): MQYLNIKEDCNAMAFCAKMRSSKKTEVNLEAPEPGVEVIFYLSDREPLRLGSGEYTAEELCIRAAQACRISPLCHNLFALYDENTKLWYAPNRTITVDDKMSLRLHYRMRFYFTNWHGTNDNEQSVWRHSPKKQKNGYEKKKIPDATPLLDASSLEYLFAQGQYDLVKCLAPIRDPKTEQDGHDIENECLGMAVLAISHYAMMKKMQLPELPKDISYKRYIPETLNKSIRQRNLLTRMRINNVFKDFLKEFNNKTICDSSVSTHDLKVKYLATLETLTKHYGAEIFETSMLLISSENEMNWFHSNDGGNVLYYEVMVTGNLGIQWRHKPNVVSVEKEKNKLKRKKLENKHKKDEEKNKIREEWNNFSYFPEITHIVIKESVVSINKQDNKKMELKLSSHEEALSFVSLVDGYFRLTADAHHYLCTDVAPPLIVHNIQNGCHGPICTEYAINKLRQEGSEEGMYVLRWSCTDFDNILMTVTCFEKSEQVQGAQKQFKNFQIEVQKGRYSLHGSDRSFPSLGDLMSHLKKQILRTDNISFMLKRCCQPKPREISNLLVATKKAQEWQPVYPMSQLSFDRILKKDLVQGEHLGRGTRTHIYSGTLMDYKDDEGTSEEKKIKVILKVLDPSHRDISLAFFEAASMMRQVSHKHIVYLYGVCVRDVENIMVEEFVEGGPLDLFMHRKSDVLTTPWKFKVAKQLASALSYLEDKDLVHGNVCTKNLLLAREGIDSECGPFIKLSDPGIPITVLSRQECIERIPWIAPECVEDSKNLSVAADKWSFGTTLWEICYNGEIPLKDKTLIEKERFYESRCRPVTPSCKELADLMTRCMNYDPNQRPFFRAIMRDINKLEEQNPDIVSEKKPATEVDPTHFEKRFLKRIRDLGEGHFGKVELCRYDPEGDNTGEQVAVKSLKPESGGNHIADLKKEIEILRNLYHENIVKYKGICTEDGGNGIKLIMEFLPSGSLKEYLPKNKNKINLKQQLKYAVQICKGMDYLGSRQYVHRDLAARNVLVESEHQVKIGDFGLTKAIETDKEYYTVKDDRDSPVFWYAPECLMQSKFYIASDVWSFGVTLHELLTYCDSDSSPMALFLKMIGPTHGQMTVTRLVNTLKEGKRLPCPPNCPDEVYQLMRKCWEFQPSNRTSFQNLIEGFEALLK
Chain of RET (P07949 29-1114, species assumed): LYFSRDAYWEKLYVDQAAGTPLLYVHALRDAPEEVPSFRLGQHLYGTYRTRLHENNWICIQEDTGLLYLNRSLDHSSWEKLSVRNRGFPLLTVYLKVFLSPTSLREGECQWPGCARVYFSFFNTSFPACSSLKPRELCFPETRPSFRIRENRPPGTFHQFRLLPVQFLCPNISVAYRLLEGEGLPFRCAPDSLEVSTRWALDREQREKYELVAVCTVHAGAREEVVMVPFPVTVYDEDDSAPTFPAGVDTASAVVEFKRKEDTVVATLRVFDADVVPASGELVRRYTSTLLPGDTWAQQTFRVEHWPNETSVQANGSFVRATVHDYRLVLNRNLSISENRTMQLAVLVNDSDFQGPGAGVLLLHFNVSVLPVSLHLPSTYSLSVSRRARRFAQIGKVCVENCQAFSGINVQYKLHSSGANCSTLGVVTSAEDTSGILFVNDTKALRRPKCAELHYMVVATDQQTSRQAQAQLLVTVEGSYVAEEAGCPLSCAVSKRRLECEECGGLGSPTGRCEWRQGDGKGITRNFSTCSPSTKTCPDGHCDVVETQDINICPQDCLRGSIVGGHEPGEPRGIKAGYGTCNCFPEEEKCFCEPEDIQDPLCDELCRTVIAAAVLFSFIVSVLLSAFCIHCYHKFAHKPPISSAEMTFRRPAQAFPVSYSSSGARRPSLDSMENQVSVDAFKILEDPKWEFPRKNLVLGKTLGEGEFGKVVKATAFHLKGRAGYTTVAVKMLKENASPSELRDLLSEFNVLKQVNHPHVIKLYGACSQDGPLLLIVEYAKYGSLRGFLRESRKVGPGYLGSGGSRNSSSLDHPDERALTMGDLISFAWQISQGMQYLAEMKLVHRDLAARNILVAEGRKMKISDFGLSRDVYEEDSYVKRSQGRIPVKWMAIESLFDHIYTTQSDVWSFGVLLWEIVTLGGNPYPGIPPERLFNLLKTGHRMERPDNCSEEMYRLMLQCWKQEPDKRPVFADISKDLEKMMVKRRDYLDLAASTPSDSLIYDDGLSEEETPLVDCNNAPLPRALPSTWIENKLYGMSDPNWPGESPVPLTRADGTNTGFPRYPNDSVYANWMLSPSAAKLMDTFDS
T2 sequence (Q9BVC4 whole entry): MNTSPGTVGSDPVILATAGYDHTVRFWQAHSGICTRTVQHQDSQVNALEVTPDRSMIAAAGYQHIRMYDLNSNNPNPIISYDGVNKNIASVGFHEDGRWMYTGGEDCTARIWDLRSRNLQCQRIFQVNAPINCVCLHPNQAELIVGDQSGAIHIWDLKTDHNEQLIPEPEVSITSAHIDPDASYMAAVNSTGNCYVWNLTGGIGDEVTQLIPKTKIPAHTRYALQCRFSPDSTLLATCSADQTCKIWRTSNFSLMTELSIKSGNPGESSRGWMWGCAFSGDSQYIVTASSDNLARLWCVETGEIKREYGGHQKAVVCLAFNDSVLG
T2 sequence (P62942 2-108): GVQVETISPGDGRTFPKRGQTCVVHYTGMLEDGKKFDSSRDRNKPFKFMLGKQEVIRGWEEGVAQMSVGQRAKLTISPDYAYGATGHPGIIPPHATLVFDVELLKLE

As usually defined, the IC50 is the concentration that inhibits the measured activity by half. On to `Cc1cc(Nc2nc(N[C@@H](C)c3ccc(F)cc3)c(C#N)cc2F)n[nH]1` [AZ 960], for which the IC50 in [1] is less than 3 nM. Moreover, the “selectivity for JAK2 versus JAK3” value in assay [2] is given as 3 fold.

As to `CCn1c(C(=O)N(C2CC2)C2CC2)cc2c3c(ncn3C)c(Nc3cc(C)n(C)n3)nc21` [BMS-911543], the “selectivity for JAK2 versus JAK1” value in [3] was approximately 350 fold. The “selectivity for JAK2 versus JAK3” value in assay [2] was 75 fold. Moreover, the “selectivity for JAK2 versus TYK2” value in [4] is on record as 65 fold.

On to `CN1CCN(c2cccc(Nc3nc4c(-c5ccc(S(C)(=O)=O)cc5)cccn4n3)c2)CC1` [CEP33779], for which the “selectivity for JAK2 versus JAK1” value in assay [3] was more than 40 fold. The IC50 in assay [1] was 1.8 nM. Also, the “selectivity for JAK2 versus TYK2” value in assay [4] is reported as more than 800 fold.

`CCS(=O)(=O)N1CCN(c2ccc(Nc3ncc(C(N)=O)c(NC4CC4)n3)cc2)CC1` [Cerdulatinib]: in assay [5], the IC50 was less than 200 nM.

Take `CO[C@H]1C[C@@H]2CC[C@@H](C)[C@@](O)(O2)C(=O)C(=O)N2CCCC[C@H]2C(=O)O[C@H]([C@H](C)C[C@@H]2CC[C@@H](OCCO)[C@H](OC)C2)CC(=O)[C@H](C)/C=C(\C)[C@@H](O)[C@@H](OC)C(=O)[C@H](C)C[C@H](C)/C=C/C=C/C=C/1C` [Everolimus]: the IC50 in assay [6] is 1.6 to 2.4 nM.

With `N#Cc1ccc(COc2ccc(-c3cccc4nc(NC(=O)C5CC5)nn34)cc2)cn1` [GLPG0634 analogue], the IC50 was 10 nM in assay [3], 28 nM in [1], 810 nM in [2] and 116 nM in assay [4].

As for `Cn1c2ccccc2c2c3c(c4c5ccccc5n(CCC#N)c4c21)CNC3=O` [Go6976], in assay [7], the IC50 was 7.9 nM.

For `COc1ccc(-c2ccc3c(N4CCOCC4)nc(N4C[C@@H](C)O[C@@H](C)C4)nc3n2)cc1CO` [KU-0063794], the “effect on PI3Ks” value in [8] is “no effect”.

With `CNS(=O)(=O)C[C@H]1CC[C@H](N(C)c2ncnc3[nH]ccc23)CC1` [Oclacitinib], in assay [9], the “inhibition of a panel of 38 non-JAK kinases” value is “does not inhibit”.

With `COc1ccc(-c2cc3c(C)nc(N)nc3n([C@H]3CC[C@H](OCCO)CC3)c2=O)cn1` [PF-04691502], the “activity against Vps34, AKT, PDK1, p70S6K, MEK, ERK, p38, or JNK” value in assay [10] is reported as “little activity”.

In the case of `CO[C@H]1C[C@@H]2CC[C@@H](C)[C@@](O)(O2)C(=O)C(=O)N2CCCC[C@H]2C(=O)O[C@H]([C@H](C)C[C@@H]2CC[C@@H](OP(C)(C)=O)[C@H](OC)C2)CC(=O)[C@H](C)/C=C(\C)[C@@H](O)[C@@H](OC)C(=O)[C@H](C)C[C@H](C)/C=C/C=C/C=C/1C` [Ridaforolimus], the IC50 in assay [11] was 0.2 nM.

With `Cc1cnc(Nc2ccc(N3CCN(C)CC3)cc2)nc1Nc1cccc(S(=O)(=O)NC(C)(C)C)c1` [TG101209], the IC50 was 25 nM in assay [12] and 17 nM in assay [13].

`C[C@@H]1CCN(C(=O)CC#N)C[C@@H]1N(C)c1ncnc2[nH]ccc12` [Tofacitinib]: in assay [14], the “lipodystrophic (inflammatory) phenotype” value is reported as “partially rescues”. In [14] (Tofacitinib treatment), the “fat and weight loss” value is on record as “significantly rescued”; the survival result is given as “improves”. Moreover, the autophagy/lipophagy defect entry in assay [15] (gWAT immunoblot (P62), CLEC16A KO mice) is listed as “rescues”. Moreover, in assay [15] (setting [19]), the SOCS1 expression result is “significantly reversed”; the “p-STAT1 and p-STAT3” value was “downregulating the p-STAT1 and p-STAT3 to normal levels comparable to control”; the “phosphorylation of ACC” value is listed as “promoted”; the “phosphorylation of mTOR” value is given as “reversal”. Also, the “upregulated p-AMPK” value in [15] (setting [19]) is “significantly reduced”. The “phospho-HSL (p-HSL)” value in assay [15] (gWAT immunoblot, CLEC16A KO+Tofacitinib mice) was “significant reversal”. In addition, the “CLEC16A knockout inflammatory phenotype (cytokines/chemokine levels)” value in [16] (plasma, KO+Tofacitinib treated mice, FIG. 11) is given as “attenuated”.

On to `N#CC(=C(/N)Sc1ccccc1N)/C(C#N)=C(\N)Sc1ccccc1N` [U0126], for which the “up regulated cytokines and chemokines” value in [16] (plasma of U0126-treated KO mice) is recorded as “reversed”.

Turning to `CNC(=O)c1cccc(-c2ccc3c(N4CCOC[C@@H]4C)nc(N4CCOC[C@@H]4C)nc3n2)c1` [Vistusertib], in [17], the “binding to the majority of kinases” value is “no or weak binding”.

As for `COc1cc2ncnc(Nc3ccc(O)c(Br)c3)c2cc1OC` [WHI-P154], in assay [3], the “activity against JAK1” value was “no activity”. Besides, the “activity against JAK2” value in [1] was “no activity”.

As to `C[C@H](NC(=O)/C(C#N)=C/c1cccc(Br)n1)c1ccccc1` [WP1066], the IC50 in [18] was 2430 nM.

Consider `CC(C)N(CCC(=O)c1ccc2ccccc2c1)Cc1ccccc1` [ZM 39923 HCl], for which the “activity against JAK2” value in assay [1] is “almost no activity”.
